Assay results: patent US11407719B2, “Anti-inflammatory agents” (Resverlogix Corp., priority 2009, dated 2022)

How the values were obtained:
VCAM-1 mRNA = experiment: Quantification of hVCAM mRNA; format: cell-based, human; design: key: Active: an active compound is one that causes a ≥20% inhibition in VCAM-1 mRNA at a concentration less than or equal to 10 μM; -1 mRNA at a concentration less than or equal to 10 μM; conditions: VCAM-1 mRNA by real-time PCR; HUVECs, 1 h pretreatment, tumor necrosis factor-α stimulation 24 h; concentration ≤10 μM
Outline: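 HUVECs were pretreated 1 h with compound, then stimulated with TNF-α and harvested 24 h later. Isolated mRNA went into one-step qRT-PCR. hVCAM Ct values were normalized to an internal control and expressed as fold induction relative to control.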

hIL-6 mRNA = experiment: Quantification of hIL-6 mRNA; format: cell-based, human; design: key: Active: an active compound is one that causes a ≥20% inhibition in IL-6 mRNA at a concentration less than or equal to 10 μM; conditions: IL-6 mRNA by real-time PCR; differentiated U937 cells, 1 h pretreatment, lipopolysaccharide stimulation 3 h; concentration ≤10 μM
Outline: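 U937 cells, differentiated for 3 days, were pretreated with compound for 1 h and then stimulated with E. coli LPS for 3 h at 37 °C. IL-6 mRNA was quantified by one-step qRT-PCR, with Ct normalized to an internal control, and fold induction was expressed relative to control.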

SMILES	melting point [°C]	Inhibition of VCAM-1 expression (VCAM-1 mRNA)	Inhibition of IL-6 expression (hIL-6 mRNA)
Cc1cc(-c2nc3cccc(Cl)c3c(=O)[nH]2)cc(C)c1OCCN1CCCC1 [5-Chloro-2-(3,5-dimethyl-4-(2-(pyrrolidin-1-yl)ethoxy)phenyl)quinazolin-4(3H)-one]	179 to 180	Active	Active
COc1cc(OCCOC(C)C)cc2nc(-c3cc(C)nc(C)c3)[nH]c(=O)c12 [2-(2,6-Dimethylpyridin-4-yl)-7-(2-isopropoxyethoxy)-5-methoxyquinazolin-4(3H)-one]	188 to 189	Active	Active
Cc1cc(-c2nc3cc(OCCOC(C)C)cc(OCCOC(C)C)c3c(=O)[nH]2)cc(C)n1 [2-(2,6-dimethylpyridin-4-yl)-5,7-bis(2-isopropoxyethoxy)quinazolin-4(3H)-one]	124 to 125	Active	Active
COc1cc(OCCOCc2ccccc2)cc2nc(-c3ccncc3)[nH]c(=O)c12 [7-(2-(Benzyloxy)ethoxy)-5-methoxy-2-(pyridin-4-yl)quinazolin-4(3H)-one]	228.2 to 229.9	Active	Active
COc1cccc2c(=O)[nH]c(-c3cc(C)c(OCCN4CCCC4)c(C)c3)nc12 [2-(3,5-Dimethyl-4-(2-(pyrrolidin-1-yl)ethoxy)phenyl)-8-methoxyquinazolin-4(3H)-one]	231 to 232	Active	Active
COCCOc1cc(OC)c2c(=O)[nH]c(-c3ccnc(C)c3)nc2c1 [5-methoxy-7-(2-methoxyethoxy)-2-(2-methylpyridin-4-yl)quinazolin-4(3H)-one]	260 to 262	Active	Active
COc1cc(OCCOc2ccccc2)cc2nc(-c3cc(C)nc(C)c3)[nH]c(=O)c12 [2-(2,6-Dimethylpyridin-4-yl)-5-methoxy-7-(2-phenoxyethoxy)quinazolin-4(3H)-one]	223 to 224	Active	Active
Cc1cc(-c2nc3ccc(CCN4CCOCC4)cc3c(=O)[nH]2)cc(C)n1 [2-(2,6-Dimethylpyridin-4-yl)-6-(2-morpholinoethyl)quinazolin-4(3H)-one]	248.5 to 249.3	Inactive	Active
COc1cc(OC)c2c(=O)[nH]c(-c3cccc(OCCO)c3)nc2c1 [2-(3-(2-Hydroxyethoxy)phenyl)-5,7-dimethoxyquinazolin-4(3H)-one]	244.8 to 246	Active	Active
COc1cc(OCCOCc2ccccc2)cc2nc(-c3cc(C)nc(C)c3)[nH]c(=O)c12 [7-(2-(Benzyloxy)ethoxy)-2-(2,6-dimethylpyridin-4-yl)-5-methoxyquinazolin-4(3H)-one]	178 to 180	Active	Active
Cc1cc(-c2nc3ccc(CN4CCOCC4)cc3c(=O)[nH]2)ccn1 [2-(2-methylpyridin-4-yl)-6-(morpholinomethyl)quinazolin-4(3H)-one]	267 to 268	Inactive	Active
COc1cc(OC)cc(-c2nc3ccc(Nc4ccncc4)cc3c(=O)[nH]2)c1 [2-(3,5-Dimethoxyphenyl)-6-(pyridin-4-ylamino)quinazolin-4(3H)-one]	289 to 290	Inactive	Active

More lines, main results first:

melting point [°C]	SMILES	Inhibition of VCAM-1 expression (VCAM-1 mRNA)	Inhibition of IL-6 expression (hIL-6 mRNA)
194 to 196	COc1cc(OC)c2c(=O)[nH]c(-c3cc(C)c(CCCN4CCCC4)c(C)c3)nc2c1 [2-(3,5-Dimethyl-4-(3-(pyrrolidin-1-yl)propyl)phenyl)-5,7-dimethoxyquinazolin-4(3H)-one]	Active	Active
218 to 220	COc1ccc2c(=O)[nH]c(-c3cc(C)c(OCCN4CCCC4)c(C)c3)nc2c1 [2-(3,5-Dimethyl-4-(2-(pyrrolidin-1-yl)ethoxy)phenyl)-7-methoxyquinazolin-4(3H)-one]	Active	Active
227 to 229	COc1cc(OCCN2CCCC2)cc2nc(-c3cc(C)nc(C)c3)[nH]c(=O)c12 [2-(2,6-Dimethylpyridin-4-yl)-5-methoxy-7-(2-(pyrrolidin-1-yl)ethoxy)quinazolin-4(3H)-one]	Inactive	Active
201.2 to 203.1	COc1ccc2nc(-c3cc(C)c(OCCN4CCCC4)c(C)c3)[nH]c(=O)c2c1 [2-(3,5-Dimethyl-4-(2-(pyrrolidin-1-yl)ethoxy)phenyl)-6-methoxyquinazolin-4(3H)-one]	Active	Active
219 to 221	COc1cc(OC)c2c(=O)[nH]c(-c3cc(C)c(OCCN4C(=O)CN(C(C)C)C4=O)c(C)c3)nc2c1 [3-(2-(4-(5,7-Dimethoxy-4-oxo-3,4-dihydroquinazolin-2-yl)-2,6-dimethylphenoxy)ethyl)-1-isopropylimidazolidine-2,4-dione]	Active	Active
209 to 210	Cc1cc(-c2nc3cc(Cl)cc(Cl)c3c(=O)[nH]2)cc(C)c1OCCN1CCCC1 [5,7-Dichloro-2-(3,5-dimethyl-4-(2-(pyrrolidin-1-yl)ethoxy)phenyl)quinazolin-4(3H)-one]	Active	Active
159 to 160	COc1cc(OCCN2CCCC2)cc(-c2nc3cc(OC)cc(OC)c3c(=O)[nH]2)c1 [5,7-Dimethoxy-2-(3-methoxy-5-(2-(pyrrolidin-1-yl)ethoxy)phenyl)quinazolin-4(3H)-one]	Active	Active
219.6 to 221.4	COc1cc(OC)c2c(=O)[nH]c(-c3cc(C)c(OCCN4C(=O)NC(c5ccccc5)C4=O)c(C)c3)nc2c1 (stereo not drawn) [3-(2-(4-(5,7-Dimethoxy-4-oxo-3,4-dihydroquinazolin-2-yl)-2,6-dimethylphenoxy)ethyl)-5-phenylimidazolidine-2,4-dione]	Active	Active
213 to 214	COc1cc(OC)c2c(=O)[nH]c(-c3cc(C)c(OCCN4CCN(C(C)=O)CC4)c(C)c3)nc2c1 [2-(4-(2-(4-Acetylpiperazin-1-yl)ethoxy)-3,5-dimethylphenyl)-5,7-dimethoxyquinazolin-4(3H)-one]	Active	Active
198 to 199	COc1cc(OC)c2c(=O)[nH]c(-c3cc(C)c(OCCN4CCCCCC4)c(C)c3)nc2c1 [2-(4-(2-(Azepan-1-yl)ethoxy)-3,5-dimethylphenyl)-5,7-dimethoxyquinazolin-4(3H)-one]	Active	Active
190 to 191	COc1cc(OCCN2CCCC2)c2c(=O)[nH]c(-c3cc(C)nc(C)c3)nc2c1 [2-(2,6-Dimethylpyridin-4-yl)-7-methoxy-5-(2-(pyrrolidin-1-yl)ethoxy)quinazolin-4(3H)-one]	Active	Active
228 to 230	COc1cc(OC)c2c(=O)[nH]c(-c3cc(C)c(OCCN4CCCC4)c(C)c3)nc2n1 [2-(3,5-Dimethyl-4-(2-(pyrrolidin-1-yl)ethoxy)phenyl)-5,7-dimethoxypyrido[2,3-d]pyrimidin-4(3H)-one]	Active	Active
157 to 158	COc1cccc2nc(-c3cc(C)c(OCCN4CCCC4)c(C)c3)[nH]c(=O)c12 [2-(3,5-Dimethyl-4-(2-(pyrrolidin-1-yl)ethoxy)phenyl)-5-methoxyquinazolin-4(3H)-one]	Active	Active
